Data from patent publication US6949571B2, “1,2-dihydropyridine compounds, process for preparation of the same and use thereof” (Eisai Co., Ltd., priority 2000, dated 2005).
Like-named read-outs stand apart in the source and are kept apart here.

Tests used:
[1] = system: convulsions induced by AMPA; assay: Anticonvulsant action induced by AMPA; type: in vivo, mice of ddy strain; conditions: 25 mg/kg orally, male ddy mice; AMPA continuously injected into lateral ventricle 30 minutes or 1 hour after
Protocol: A test compound was suspended in a 0.5% methyl cellulose solution or in sesame oil and was orally administered (25 mg/kg) to male mice of ddy strain. After 30 minutes or 1 hour from the oral administration, AMPA was continuously injected ([…]/5 μl/minute/mouse) into lateral ventricle to induce the convulsions. The effect was judged by a time-extending action until the convulsion takes place by a continuous injection of AMPA.

[2] = system: experimental autoimmune encephalomyelitis; assay: Experimental autoimmune encephalomyelitis model; type: in vivo; conditions: p.o. 5, 10 and 20 mg/kg, 10-16 days post immunisation, female Lewis rats, versus vehicle
Protocol: Female Lewis rats (205±10 g) obtained from Charles River, Kent UK, were housed in pairs under environmentally controlled conditions (6:00 a.m.-6:00 p.m. light/dark cycle; 22-24° C.; 45-55% humidity) and allowed free access to food and water. Experimental groups consisted of 9-12 animals. Rats were immunised in each hind foot with 20-50 μl of inoculum containing 50 μg guinea pig myelin basic protein (MBP; final concentration 2 mg/ml), emulsified in Freund's complete adjuvant (CFA; Sigma, UK) containing Mycobacterium tuberculosis H37Ra (final concentration 5.5 mg/ml; Difco Laboratories, UK). Animals were weighed and monitored daily and clinical disease scored as (O) no clinical signs; (1) flaccid tail and weight loss; (2) hind limb hypotonia with further weight loss; (3) complete hind limb paralysis; (4) paraplegia and (5) death. […] During the period of compound administration (10-16 days post immunisation; dpi) animals were scored 15 h after injection of vehicle or compound to avoid any acute effect of treatment on disease score. Compounds were dissolved/suspended in 0.5% methyl cellulose using a hand held Polytron homogeniser (PT1200; 2 min). Rats were dosed p.o. with either methyl cellulose vehicle (2.5 ml/kg) or compound at 5, 10 and 20 mg/kg. Results: the compound of the invention is improved in view of experimental autoimmune encephalomyelitis.

[3] = Table 1, primary culture of rat embryo cerebral cortex nerve cells, 2 μM AMPA, 1 μM MK-801
[4] = Table 2, suppression of AMPA-induced calcium influx into nerve cells
[5] = Table 3, primary culture of rat embryo cerebral cortex nerve cells, 2 μM AMPA, 1 μM MK-801
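Wherever IC50 is given: primary rat embryonic cortical neurons grown on an astrocyte layer in 96-well plates, used after at least 8 to 10 days in culture, Fura2-AM fluorescence ratio at 340/380 nm excitation.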

Protocol for AMPA receptor: Cerebral cortex was cut out from the brain of rat of gestational 18 days and treated with trypsin and DNase to disperse the cells. The cells were flown by MEM containing 10% of serum, sown in a culture bottle and astrocytes were proliferated. The astrocytes were re-dispersed by trypsin and sown in a 96-well plate. After incubation for one week, it was confirmed that the astrocytes covered all over the bottom and then the nerve cells of cerebral cortex which was dispersed by the above method were sown thereupon. After incubation for 24 hours, the medium was changed, the incubation was carried out for one week and, after that, the medium was changed to that containing 1 μM of MK-801. Nerve cells which were incubated for not shorter than 8 to 10 days were used.
Calcium influx into the cells was measured using Fura2-AM which was a calcium-sensitive fluorescent dye. It was treated in a medium containing Fura2-AM for 1 hour, incorporated into the cells, exchanged to a Tyrode solution containing 1 μM MK-801 and stimulation was carried out using 2 μM AMPA. Change in the amount of calcium flown into the cells were measured as the change in the fluorescent intensity at the exciting wave length of 340/380 nm.

| SMILES | anticonvulsant action (time-extending action until the convulsion takes place) [1] | IC50 (AMPA receptor; [3]) [nM] | effect on experimental autoimmune encephalomyelitis (clinical disease score) [2] | IC50 (AMPA receptor; [4]) [nM] | IC50 (AMPA receptor; [5]) [nM] | IC50 (AMPA receptor; control compound, same test, 2 μM AMPA) [nM] |
| --- | --- | --- | --- | --- | --- | --- |
| O=c1c(-c2cccnc2Cl)cc(-c2ccccn2)cn1-c1ccccc1 [Example 4, 3-(2-Chloro-3-pyridyl)-5-(2-pyridyl)-1-phenyl-1,2-dihydropyridin-2-one] | significant anticonvulsant action | 100 | – | – | – | – |
| N#Cc1ccccc1-c1cc(-c2ccccn2)cn(-c2ccccc2)c1=O [Example 7, 3-(2-Cyanophenyl)-5-(2-pyridyl)-1-phenyl-1,2-dihydropyridin-2-one] | significant anticonvulsant action | 100 | superior effect to the vehicle-administered group | – | – | – |
| N#Cc1ccccc1-c1cc(-c2ccccn2)cn(-c2cccc(N)c2)c1=O [Example 9, 3-(2-Cyanophenyl)-5-(2-pyridyl)-1-(3-aminophenyl)-1,2-dihydropyridin-2-one] | significant anticonvulsant action | 30 | – | – | – | – |
| CN(C)c1cccc(-n2cc(-c3ccccn3)cc(-c3ccccc3C#N)c2=O)c1 [Example 12, 3-(2-Cyanophenyl)-5-(2-pyridyl)-1-(3-dimethylaminophenyl)-1,2-dihydropyridin-2-one] | significant anticonvulsant action | 100 | – | – | – | – |
| N#Cc1ncccc1-c1cc(-c2ccccn2)cn(-c2ccccc2)c1=O [Example 16, 3-(2-Cyano-3-pyridyl)-5-(2-pyridyl)-1-phenyl-1,2-dihydropyridin-2-one] | significant anticonvulsant action | 100 | – | – | – | – |
| N#Cc1ccccc1-c1cc(-c2ccccn2)cn(-c2cccnc2)c1=O [Example 32, 3-(2-Cyanophenyl)-5-(2-pyridyl)-1-(3-pyridyl)-1,2-dihydropyridin-2-one] | significant anticonvulsant action | 100 | superior effect to the vehicle-administered group | – | – | – |
| N#Cc1ccccc1-c1cc(-c2ccccc2)cn(-c2ccccc2)c1=O [Example 41, 3-(2-Cyanophenyl)-1,5-diphenyl-1,2-dihydropyridin-2-one] | significant anticonvulsant action | 80 | – | – | – | – |
| N#Cc1ccccc1-c1cc(-c2ccccc2)cn(-c2cccnc2)c1=O [Example 47, 3-(2-Cyanophenyl)-5-phenyl-1-(3-pyridyl)-1,2-dihydropyridin-2-one] | significant anticonvulsant action | 600 | – | – | – | – |
| O=c1c(-c2ccccc2Cl)cc(-c2ccccn2)cn1-c1ccccc1 [Example 57, 3-(2-Chlorophenyl)-5-(2-pyridyl)-1-phenyl-1,2-dihydropyridin-2-one] | significant anticonvulsant action | 200 | – | – | – | – |
| O=c1c(-c2ccccc2)cc(-c2ccccn2)cn1-c1ccccc1 [Example 61, 3-Phenyl-5-(2-pyridyl)-1-phenyl-1,2-dihydropyridin-2-one] | significant anticonvulsant action | 200 | – | – | – | – |
| O=c1c(-c2cccnc2F)cc(-c2ccccn2)cn1-c1ccccc1 [Example 76, 3-(2-Fluoro-3-pyridyl)-5-(2-pyridyl)-1-phenyl-1,2-dihydropyridin-2-one] | significant anticonvulsant action | 100 | superior effect to the vehicle-administered group | – | – | – |
| N#Cc1cccc(-c2cc(-c3ccccn3)cn(-c3ccccc3)c2=O)n1 [Example 78, 3-(6-Cyano-2-pyridyl)-5-(2-pyridyl)-1-phenyl-1,2-dihydropyridin-2-one] | significant anticonvulsant action | 1400 | – | – | – | – |
| N#Cc1ccccc1-c1cc(-c2ccccn2)cn(-c2ccc(F)cc2)c1=O [Example 91, 3-(2-Cyanophenyl)-5-(2-pyridyl)-1-(4-fluorophenyl)-1,2-dihydropyridin-2-one] | significant anticonvulsant action | 50 | – | – | – | – |
| COc1ccccc1-n1cc(-c2ccccn2)cc(-c2ccccc2C#N)c1=O [Example 126, 3-(2-Cyanophenyl)-5-(2-pyridyl)-1-(2-methoxyphenyl)-1,2-dihydropyridin-2-one] | significant anticonvulsant action | 300 | – | – | – | – |
| O=c1c(-c2ccccc2Cl)cc(-c2ccccn2)cn1-c1cccnc1 [Example 128, 3-(2-Chlorophenyl)-5-(2-pyridyl)-1-(3-pyridyl)-1,2-dihydropyridin-2-one] | significant anticonvulsant action | 70 | – | – | – | – |
| N#Cc1sccc1-c1cc(-c2ccccn2)cn(-c2cccnc2)c1=O [Example 137, 3-(2-Cyanothiophen-3-yl)-5-(2-pyridyl)-1-(3-pyridyl)-1,2-dihydropyridin-2-one] | significant anticonvulsant action | – | – | 50 | – | – |
| O=c1c(-c2cccnc2F)cc(-c2ccccn2)cn1-c1cccnc1 [Example 139, 3-(2-Fluoro-3-pyridyl)-5-(2-pyridyl)-1-(3-pyridyl)-1,2-dihydropyridin-2-one] | significant anticonvulsant action | – | superior effect to the vehicle-administered group | 300 | – | – |
| N#Cc1ccccc1-c1cc(-c2ncccn2)cn(-c2ccccc2)c1=O [Example 164, 3-(2-Cyanophenyl)-1-phenyl-5-(2-pyrimidinyl)-1,2-dihydropyridin-2-one] | significant anticonvulsant action | – | superior effect to the vehicle-administered group | 80 | – | – |
| N#Cc1ccccc1-c1cc(-c2cnccn2)cn(-c2ccccc2)c1=O [Example 199, 3-(2-Cyanophenyl)-1-phenyl-5-(2-pyrazyl)-1,2-dihydropyridin-2-one] | significant anticonvulsant action | – | – | 700 | – | – |
| N#Cc1ccccc1-c1cc(-c2ncccn2)cn(-c2cccnc2)c1=O [Example 261, 3-(2-Cyanophenyl)-1-(3-pyridyl)-5-(2-pyrimidinyl)-1,2-dihydropyridin-2-one] | significant anticonvulsant action | – | superior effect to the vehicle-administered group | 80 | – | – |
| O=c1c(-c2cccnc2F)cc(-c2ncccn2)cn1-c1ccccc1 [Example 262, 3-(2-Fuluoropyridin-3-yl)-1-phenyl-5-(2-pyrimidinyl)-1,2-dihydropyridin-2-one] | significant anticonvulsant action | – | superior effect to the vehicle-administered group | 300 | – | – |
| N#Cc1ncccc1-c1cc(-c2ncccn2)cn(-c2ccccc2)c1=O [Example 264, 3-(2-Cyanopyridin-3-yl)-1-phenyl-5-(2-pyrimidinyl)-1,2-dihydropyridin-2-one] | significant anticonvulsant action | – | superior effect to the vehicle-administered group | 50 | – | – |
| O=c1c(-c2ccccc2[N+](=O)[O-])cc(-c2ccccn2)cn1-c1ccccc1 [Example 270, 3-(2-Nitrophenyl)-1-phenyl-5-(2-pyridyl)-1,2-dihydropyridin-2-one] | significant anticonvulsant action | – | – | 140 | – | – |
| N#Cc1ccccc1-c1cc(-c2cccc(N)n2)cn(-c2ccccc2)c1=O [Example 298, 5-(2-Aminopyridin-6-yl)-3-(2-cyanophenyl)-1-phenyl-1,2-dihydropyridin-2-one] | significant anticonvulsant action | – | – | 300 | – | – |
| O=C(c1cc(-c2ccccc2)c(=O)n(-c2ccccc2)c1)c1ccccn1 [Example 395, 5-(2-Pyridinecarbonyl)-1-phenyl-3-phenyl-1,2-dihydropyridin-2-one] | – | – | – | – | 900 | – |
| CCOC(=O)C=Cc1sccc1-c1cc(-c2ccccn2)cn(-c2ccccc2)c1=O [Example 398, 3-[(2-Ethoxycarbonyl)vinylthiophen-3-yl]-5-(2-pyridyl)-1-phenyl-1,2-dihydropyridin-2-one] | – | – | – | – | 200 | – |
| CC1=NN=C(c2ccc(N)cc2)c2cc3c(cc2C1)OCO3 [GYKI 52466, reference compound] | – | – | – | – | – | 9020 |
